The values that follow come from paper PMC7006816, “Human β-Defensin 2 Mediated Immune Modulation as Treatment for Experimental Colitis” (Frontiers in Immunology, 2020).

Where no end group is shown, it is not given here.

Data set [1] relates to human primary PBMC's of ulcerative colitis patients. Kind of data set: Stimulation of PBMCs of ulcerative colitis patients with LPS, cytokine release. To be noted: LPS 20 pg/ml; 10 μg/mL hBD2; colitis patients n = 4; LegendPlex. Type of data set: cell-based. The protocol: Heparinized blood was diluted 1/1 v/v with RPMI (Gibco) and was subjected to Ficoll-Paque Plus (GE healthcare) density centrifugation within 2 h of drawing. Plasma was collected from the top from individual donors and was kept on ice until it was used at 2% in the culture medium (autologous culture medium). Isolated PBMC's were re-suspended in autologous culture medium and seeded in 96-well culture plates with 115.500 cells per well (Figure 1) or 200.000 cells per well (Figure 2) in a total of 200 μl. PBMC's from the same donor were stimulated with 100, 10 or 1 μg/ml of hBD2 either alone or together with 20 pg/ml lipopolysaccharide (LPS) (E. coli, O111:B4, Sigma L4391) or with 0.3 μg/ml Pam3CSK4 (InvivoGen). The supernatants were collected after incubation at 37°C for 24 h, and stored at −80°C until cytokine measurement.
The experiment in Figure 2 was performed with 8 subjects (4 controls and 4 colitis patients) to study the impact of disease status on treatment efficacy. Clinical status of these subjects were subtotal remission (Simponi and Salofalk), remission (Vedolizumab), mild disease (Infliximab, Salofalk, and Prednisolon), and moderate disease (Vedolizumab). PBMCs from these subjects were analyzed for IL-1b, TNF-a, IFN-g, IL-12, and IL-23 expression using a human inflammation cytometric bead array (LegendPlex Biolegends) according to manufacturer's instructions.

Data set [2] deals with SCID mice with CD4+/CD25− T cell transfer colitis. Description: T cell transfer colitis model. Type of data set: in vivo, mouse. The protocol:
This study was performed by the Department of Biomedical Science at the University of Catania according to directive 86/609 EEC and approved by Novozymes science ethics committee. 8 weeks old female BALB/c and C.B-17 female SCID mice were purchased from Harlan (Italy). Colitis was induced in severe combined immunodeficiency (SCID) mice by transplantation of CD4^+/CD25^− T cells from the BALB/c mice. Briefly, lymphomonocytes isolated from spleen or lymph nodes from BALB/c mice were subjected to negative selection of CD4^+ T cells. Afterwards, CD4^+/CD25^+ cells were positively isolated by binding to the beads from the CD4^+ T cell suspensions and the CD4^+/CD25^− were collected from supernatant. […] CD4^+/CD25^− cells were intraperitoneally injected to SCID mice at a concentration of 500,000 cells in a final volume of 0.2 ml RPMI 1640. Sham treated animals (n = 6) received 0.2 ml pure RPMI 1640. Diseased mice were randomized divided into 4 groups (n = 11) and treated once daily by s.c. application of PBS (vehicle), hBD2 (0.1 and 1 mg/kg, respectively) or 0.3 mg/kg Dexamethasone (Dexa., applied intraperitoneally). Treatments started 7 days post T cell transfer and continued daily for 86 days. Animals were weighed three times a week and monitored twice a week starting from day 42 for the clinical status, summarized as DAI. The DAI included body weight loss, stool consistency, and the presence of blood at the rectum. One animal in the vehicle and one in the Dexamethasone treated groups had to be sacrificed before the end of the study. At the end of the study, animals were sacrificed and the colon was removed and carefully cleaned for further analysis. First, the colon was weighed then a section from the middle was removed and fixed for pathologic survey. The rest of the colon (5 cm) was used to quantify the activity of myeloperoxidase in the tissue.
Myeloperoxidase activity was performed on 5 cm of colon previously frozen at −80°C. Colon was homogenized in 0.5% of HETAB dissolved in 10 mM of Phosphate-Citrate Buffer (pH 7.0) to enable the release of MPO enzyme from the neutrophil granules. Homogenated samples after three freeze-thaw cycles were spun at 3,000 × g at 4°C for 30 min. Pellets were resuspended in 0.5% HETAB in 10 mM Phosphate-Citrate Buffer and spun again at 3,000 × g at 4°C for 30 min. 500 ul of supernatant were delivered into a vial along with 500 ul of TMB in Phosphate-Citrate Buffer containing Perborate Sodium. Changes in absorbance at 620 and 450 nm were read by a spectrophotometer (IRIS). Peroxidase enzyme diluted in 0.5% HETAB in 10 mM Phosphate-Citrate Buffer and H2O was used as standard. Two-fold dilutions of standard were prepared at the highest concentration of 50 pg/ml. Reagents and samples were kept refrigerated. Substrate solution was prepared just before the assay. MPO activity expresses the amount of enzyme that is able to degrade […] of peroxide/min and it is expressed as U/g tissue weight.
Sections of the colon were taken from each animal and preserved in neutral buffered formaline for subsequent histological analysis. Sections were stained using haematoxylin and eosin for further scoring.

Data set [3] concerns human mesenchymal stem cells, osteoblasts, keratinocytes, and HeLa cells. To be noted: cited from earlier work. The text has this: (§1) Herein we report that hBD2 can be used as a systemically administered anti-inflammatory biological. hBD2 is well-tolerated, both in vitro, and in vivo. […] After su ...
The test system of data set [4] is intestinal epithelial cells. To be noted: cited from earlier work.
Excerpt: as §1

Setting [5] is: hBD2 1 mg/kg s.c. daily, n = 11.

As to “human β-defensin 2 (GIGDPVTCLKSGAICHPVFCPRRYKQIGTCGLPGTKCCKKP; not fully specified; ends and bridges not checked) [hBD2, Recombinant human β-defensin 2 expressed in E. coli as his-tagged thioredoxin fusion, cleaved and purified, natural tertiary structure]”, in data set [1], the “Proinflammatory immune response (IL-1β, TNF-α, INF-γ, IL-23, IL-12p70 release)” value is on record as “successfully attenuated the proinflammatory immune response”. Further, in data set [2] (hBD2 0.1 mg/kg s.c. daily, n = 11), the “Outcome of T cell mediated colitis” value is “did not improve the outcome of T cell mediated colitis”. Further, in data set [2] (hBD2 1 mg/kg s.c. daily), the “Histological analysis of colon” value is “less signs of inflammation and tissue disruption”. The Weight change entry in data set [2] (hBD2 1 mg/kg s.c. daily from day 7 after transfer, n = 11) is “less weight loss”. In data set [2] (hBD2 1 mg/kg s.c. daily, end of experiment, n = 11), the Colon weight entry is recorded as “significantly reduced the colon weight”. Besides, in data set [2] (setting [5]), the DAI entry is recorded as “improved DAI” and the Stool score result is “Same trait was observed for the stool score”. Besides, the Colonic myeloperoxidase activity result in data set [2] (hBD2 s.c. daily (0.1 or 1 mg/kg), end of experiment) is recorded as “Only a minor effect”. The Cytotoxic effects entry in data set [3] is given as “without observing cytotoxic effects”. Moreover, the Tolerability result in data set [4] is recorded as “well-tolerated by intestinal epithelial cells”.
